Patent US6753330B2, “Solid dispersion composition” (Kowa Co., Ltd., priority 2002, dated 2004)

Tests used:
[1] = Solubility of compound 1 in water; type: physicochemical
[2] = tested on: production of interleukin 1β; conditions: disclosed in JP Laid-Open No. 2000-198776; cited from earlier work

solubility in water (in words) [1]: exceptionally poor solubility in water
Structure (SMILES): CSc1ccc(-c2nn(Cc3ccccc3)c(=O)cc2-c2ccc(Cl)cc2)cc1 [compound 1, 2-benzyl-5-(4-chlorophenyl)-6-[4-(methylthio)phenyl]-2H-pyridazin-3-one]
effect for suppressing production of interleukin 1β (in words) [2]: excellent effect
